# What was measured:
# [1] = system: activated CD19 CAR/CD28-T cells; Raji tumor cells; experiment: Raji tumor burden by bioluminescence imaging, function ON/OFF/ON (Example 8); format: in vivo, NSG mice
# Method: (§1) The Institutional Animal Care and Use Committee of UKW approved all mouse experiments. NOD.Cg-Prkdc^scidIl2rg^tm1wjl/SzJ (NSG) mice (female, 6-8 week old) were purchased from Charles River (Sulzfeld, Germany). Mice were inoculated with 1×10^6 Raji/ffluc_GFP tumor cells via tail vein injection (i.v.). Mice were treated with 5×10^6 CAR-modified or control untransduced T-cells (CD4:CD8 ratio=1:1) via tail vein injection (i.v.). […] Tumor burden and distribution was analyzed by serial bioluminescence imaging on an IVIS Lumina imager (Perkin Elmer, Baesweiler, Germany): mice received i.p. injections of 0.3 mg/g luciferin and images were acquired 10 minutes after luciferin injection in small binning mode at an acquisition time of 1 s to 1 min to obtain unsaturated images. Data were analyzed using LivingImage Software (Caliper) and the average radiance (or photon flux) analyzed in regions of interest that encompassed the entire body of each individual mouse. Mice were sacrificed at the end of the experiment and human T cells in bone marrow, peripheral blood and spleen were analyzed by flow cytometry. The presence of (human) cytokines in serum was measured using multiplex cytokine analysis. […]
# Raji tumor burden was determined by bioluminescence imaging on day 7, day 10, day 12, day 14, day 17, and subsequently, once a week.
# [2] = system: activated CD19 CAR/4-1BB-T cells; Raji tumor cells; experiment: Raji tumor burden by bioluminescence imaging, function ON/OFF/ON (Example 7); format: in vivo, NSG mice; details: between day 12 and 17; CAR-T cells with prior dasatinib; 97.8% without
# Method: as §1
# Raji tumor burden was determined by bioluminescence imaging on day 7, day 10, day 12, day 14, day 17, and subsequently, once a week (FIG. 16B).
# [3] = system: CD8+ CD19 CAR/4-1BB T cells; experiment: Apoptosis assay (Annexin-V/7-AAD) after co-culture with K562/CD19; format: cell-based, human
# Method: CD8^+ CD19 CAR-T cells were cultured in the presence of 50 U IL-2 either alone or with irradiated (80 Gy) K562/CD19 tumor cells at an E:T ratio of 4:1. […] After 24 hours of co-culture, co-cultures were labeled with anti-CD8 mAb, 7AAD and AnnexinV according to the manufacturer's instructions (BD Biosciences, Heidelberg, Germany), and analyzed by flow cytometry to evaluate the amount of apoptotic and dead T cells.
# At the end of the co-culture, the inventors performed staining with Annexin-V and 7-AAD to determine the percentage of live CAR-T cells (Annexin-V-negative/7-AAD-negative), CAR-T cells undergoing apoptosis (Annexin-V-positive/7-AAD-negative), and dead CAR-T cells (Annexin-V-positive/7-AAD-positive).
# [4] = system: CD8+ T cells expressing a CD19 CAR with 4-1BB costimulation; experiment: CFSE proliferation assay, co-culture with K562/CD19; format: cell-based, human; details: 72 h
# [5] = system: CD8+ T cells expressing a ROR1 CAR with 4-1BB costimulatory domain; experiment: CFSE proliferation assay, co-culture with K562/ROR1; format: cell-based, human; details: dasatinib ≥50 nM; 72 h
# Method: Proliferation: T cells were labeled with 0.2 μM carboxyfluorescein succinimidyl ester (CFSE, Invitrogen), washed and plated in duplicate or triplicate wells with irradiated (80 Gy) stimulator cells at an E:T ratio of 4:1 (K562/ROR1, K562/CD19 or RCH-ACV). No exogenous cytokines were added to the culture medium. After a 72-hour incubation, cells were labeled with anti-CD3 mAb, and analyzed by flow cytometry to assess cell division of T cells.
# CAR-T cells were labeled with CFSE and co-cultured with K562 that the inventors had transduced with either CD19 (for testing CD19 CAR-T cells) or ROR1 (for testing ROR1 CAR-T cells). Dasatinib was added to the assay medium at the beginning of the co-culture assay. Flow cytometric analyses were performed to determine the proliferation of T cells at the end of the co-culture assay.
# [6] = dasatinib added at 2 hours after the start of the co-culture, 24 h
structure (smiles),measurement,setting,value
Cc1nc(Nc2ncc(C(=O)Nc3c(C)cccc3Cl)s2)cc(N2CCN(CCO)CC2)n1 [dasatinib],mean reduction of BLI,"[1]; between day 12 and 14, previously treated with dasatinib",71%
same,median BLI,"[1]; day 17, CAR/Dasa, 966 CAR/vehicle, 839 CAR alone",507
same,reduction of tumor luminescence,[2],66%
same,dead CAR-T cells (Annexin-V-positive/7-AAD-positive),"[3]; 100 nM dasatinib present, 24 h with K562/CD19, 8.4% in absence",6.9%
same,alive CAR-T cells (Annexin-V-negative/7-AAD-negative),"[3]; 100 nM dasatinib present, 24 h with K562/CD19, 25.4% in absence",47.4%
same,apoptotic CAR-T cells (Annexin-V-positive/7-AAD-negative),"[3]; 100 nM dasatinib present, 24 h with K562/CD19, 66.2% in absence",45.7%
same,alive CAR-T cells,[3]; [6],41.7%
same,apoptotic CAR-T cells,[3]; [6],51.3%
same,dead CAR-T cells,[3]; [6],7%
same,remaining proliferation,[4]; 0.1 μM dasatinib,< 5.6%
same,residual proliferation compared to non-dasatinib treated CAR-T cells,[4]; dasatinib ≥3.125 nM,less than 80%
same,residual proliferation compared to non-dasatinib treated CAR-T cells,[4]; dasatinib ≥12.5 nM,less than 45%
same,residual proliferation compared to non-dasatinib treated CAR-T cells,[4]; dasatinib ≥50 nM,less than 8%
same,residual proliferation compared to non-dasatinib treated CAR-T cells,[5],less than 7%

# Reference: patent US20230310432A1 (JULIUS-MAXIMILIANS-UNIVERSITÄT WÜRZBURG, priority 2017, published 2023)
